Entries after “also recorded” stand apart in the source; their conditions may differ.
How the values were obtained:
Type in all cases: in vitro ADME
[1] = target: T1, CYP2C9 (Homo sapiens, UniProt P11712); assay: Metabolic clearance rate of CK with recombinant CYP2C9 under sulfaphenazole; set-up: purchased Cypex Ltd. (U.K.); conditions: recombinant CYP2C9, CK 50 μM, sulfaphenazole 1 μM
Method: The method was conducted according to our previous study with some modifications. The CYP isoform-specific probe reactions used were phenacetin O-deethylation (for CYP1A2), coumarin 7-hydroxylation (for CYP2A6), tolbutamide 4-hydroxylation (for CYP2C9), metoprolol α-hydroxylation (for CYP2D6), chlorzoxazone 6-hydroxylation (for CYP2E1),S-Mephenytoin 4-hydroxylation (for CYP2C19), and midazolam 1-hydroxylation (for CYP3A4). The kinetic study of CK was conducted with HLMs. A 0.2 mL incubation mixture that consisted of CK (as a substrate), the HLMs (0.5 mg/mL) or CYP isoforms (10 pmol), and 0.1 M sodium phosphate buffer (pH 7.4) was pre-warmed for 5 min at 37°C. The reaction was initiated by the addition of 1 mg/mL triphosphopyridine nucleotide (NADPH). […]
To screen the specific CYP isoform responsible for the CK metabolism, we determined the inhibitory effect of specific inhibitors on the metabolism of CK in the HLMs as described in detail previously. […] The inhibitory effects of the above specific inhibitors on the metabolic clearance rate of CK were evaluated separately to screen the CYP isoforms responsible for the CK metabolism. The relative activity of the CYP isoforms was calculated by dividing the peak area of CK when incubated with the inhibitor by that of CK from the negative controls. […]

[2] = target: T1, CYP2C9; assay: Inhibition of CYP2C9 (tolbutamide 4-hydroxylation) by CK in HLMs; set-up: tissue Cypex Ltd. (U.K.); host or cells: pooled human liver microsomes
Method: (§1) The method was conducted according to our previous study with some modifications. The CYP isoform-specific probe reactions used were phenacetin O-deethylation (for CYP1A2), coumarin 7-hydroxylation (for CYP2A6), tolbutamide 4-hydroxylation (for CYP2C9), metoprolol α-hydroxylation (for CYP2D6), chlorzoxazone 6-hydroxylation (for CYP2E1),S-Mephenytoin 4-hydroxylation (for CYP2C19), and midazolam 1-hydroxylation (for CYP3A4). The kinetic study of CK was conducted with HLMs. A 0.2 mL incubation mixture that consisted of CK (as a substrate), the HLMs (0.5 mg/mL) or CYP isoforms (10 pmol), and 0.1 M sodium phosphate buffer (pH 7.4) was pre-warmed for 5 min at 37°C. The reaction was initiated by the addition of 1 mg/mL triphosphopyridine nucleotide (NADPH). All the reagents were dissolved in methanol, and the final solvent concentration in all incubations (including the controls) was 1%. The final incubations were performed in a shaking water bath (37°C) for 30 min. The reactions were stopped by adding 0.2 mL ice-cold acetonitrile, which contains irbesartan (114.9 ng/mL) as the internal standard. The samples were vortexed for 5 min. After centrifugation (12000×g for 10 min), the supernatants were transferred, and aliquots of 20 μL were injected into the HPLC-MS/MS system for analysis.
(§2) CK (10–100 μM) and a single CYP isoform-specific substrate (with a concentration similar to its corresponding Kmvalue) were used to determine the inhibitory effect of CK on specific CYP isoforms as described in detail previously. Substrates including phenacetin, coumarin, tolbutamide, metoprolol, chlorzoxazone, S-Mephenytoin, and midazolam were used at concentrations of 10, 5, 100, 7.5, 40, 100, and 5 μM, respectively. All incubation conditions were the same as mentioned above. The inhibitory effects on the CYP isoforms were investigated individually by incubating the HLMs in the absence or presence of CK. The incubation solution with the solvent that was used to dissolve CK was regarded as the negative control, and the solutions containing the specific inhibitors mentioned above were considered the positive controls.
Therefore, Dixon plots for the inhibition of CYP2C9 and CYP3A4 were determined by incubating the substrate probe at multiple concentrations with or without the test inhibitor with the HLMs and cofactors. The inhibition data obtained from the pilot experiments were used as a guide to generate the appropriate probe substrate and test inhibitor concentrations for the determination of the Ki values for each CYP isoform. The isoform-specific probe substrate concentrations used were 25–200 μM tolbutamide for CYP2C9 and 5–50 μM midazolam for CYP3A4. The CK concentrations used were 10–100 μM.
Therefore, we used S/V versus [I] plots to determine the Ki’ values for the inhibition of CYP2C9 and CYP3A4. When Ki>Ki’, the intersection was above the [I] axis in the plot of S/V against [I] and below it in the Dixon plot; the opposite was true if Ki<Ki’. In the special case where Ki = Ki’ (simple non-competitive inhibition), the intersections occurred on the [I] axis in both plots. The asymptotic cases of competitive and uncompetitive inhibition can be generated by inserting the conditions Ki’ to ∞ for competitive inhibition, or Ki to ∞ for uncompetitive inhibition.
As described in detail previously, to determine the major enzymes responsible for the CK metabolism in HLMs, the metabolic clearance rate of the incubation solution without any specific inhibitor for CK was considered as 100%. The effects of the specific inhibitors on the metabolic clearance rate of CK were evaluated with SPSS one-way analysis of variance (SPSS Inc., Chicago, IL, USA). P<0.05 was considered significant in all cases. The apparent kinetic parameters of CK (Km and Vmax) were determined by fitting the Michaelis–Menten equation using the GraphPad Prism Enzyme Kinetic 5 Demo software (GraphPad Co. Ltd, San Diego, CA, USA). […]

[3] = target: T2, CYP2D6 (Homo sapiens, UniProt P10635); assay: Inhibition of CYP2D6 (metoprolol α-hydroxylation) by CK in HLMs
T2 construct: tissue Cypex Ltd. (U.K.); host or cells: pooled human liver microsomes
T2 sequence (P10635 whole entry): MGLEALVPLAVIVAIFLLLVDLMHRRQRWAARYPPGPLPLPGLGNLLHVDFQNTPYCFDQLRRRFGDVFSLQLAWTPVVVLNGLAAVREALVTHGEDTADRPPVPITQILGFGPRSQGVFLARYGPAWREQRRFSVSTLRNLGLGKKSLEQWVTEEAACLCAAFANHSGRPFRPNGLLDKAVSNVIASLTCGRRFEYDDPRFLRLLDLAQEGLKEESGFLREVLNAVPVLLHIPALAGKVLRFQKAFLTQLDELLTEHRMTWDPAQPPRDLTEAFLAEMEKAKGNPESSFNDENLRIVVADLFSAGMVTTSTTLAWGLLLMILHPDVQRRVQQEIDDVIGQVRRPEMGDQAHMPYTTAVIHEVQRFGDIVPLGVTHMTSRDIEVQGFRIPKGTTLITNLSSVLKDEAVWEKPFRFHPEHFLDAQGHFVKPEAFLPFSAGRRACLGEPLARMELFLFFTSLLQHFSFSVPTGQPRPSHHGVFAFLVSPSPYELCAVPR
Method: as §1
as §2, with “The incubation solution with the solvent that was used to dissolve CK was regarded as the negative control, and the solutions containing the specific inhibitors mentioned above were considered the positive controls.” left out

[4] = CYP2C9 in HLMs, sulfaphenazole values ref 15, 16
[5] = classified by IC50 according to Kong et al

T1 sequence (P11712 whole entry, canonical isoform): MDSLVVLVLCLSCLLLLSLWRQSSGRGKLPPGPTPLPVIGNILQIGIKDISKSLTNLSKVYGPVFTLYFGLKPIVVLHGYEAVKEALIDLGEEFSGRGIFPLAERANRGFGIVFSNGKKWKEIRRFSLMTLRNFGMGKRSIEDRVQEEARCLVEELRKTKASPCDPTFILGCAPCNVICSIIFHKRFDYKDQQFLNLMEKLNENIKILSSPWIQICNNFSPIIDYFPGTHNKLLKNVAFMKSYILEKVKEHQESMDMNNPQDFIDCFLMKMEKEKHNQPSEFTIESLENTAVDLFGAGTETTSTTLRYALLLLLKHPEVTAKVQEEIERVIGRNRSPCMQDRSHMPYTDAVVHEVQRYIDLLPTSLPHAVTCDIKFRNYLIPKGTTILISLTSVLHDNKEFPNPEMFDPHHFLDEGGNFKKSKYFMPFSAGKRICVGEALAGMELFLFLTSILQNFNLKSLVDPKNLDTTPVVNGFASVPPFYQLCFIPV

With `CC(C)=CCC[C@](C)(OC1O[C@H](CO)[C@@H](O)[C@H](O)[C@H]1O)[C@H]1CC[C@]2(C)[C@@H]1[C@H](O)C[C@@H]1[C@@]3(C)CC[C@H](O)C(C)(C)[C@@H]3CC[C@]12C` (stereo partly drawn) [CK, 20-O-β-(D-glucopyranosyl)-20(S)-protopanaxadiol] the “MCR of CK, of that of the control” value [1] was 22.0%, the “IC50 of CK higher than that of sulfaphenazole” value [2, 4] was 11-53 fold and the “Ki of CK higher than that of sulfaphenazole” value [2, 4] was 49 fold. For the same compound, the “type of inhibition of CYP2C9” value ([2]; HLMs, Dixon and S/V versus [I] plots) was “mixed type”, the IC50 ([2]; HLMs, tolbutamide 4-hydroxylation, tolbutamide 100 μM, CK 10–100 μM) was 16 µM and the Ki ([2]; HLMs, tolbutamide 25–200 μM, secondary plot of Lineweaver–Burk slopes) was 14.9 µM. The “inhibitor potency class for CYP2C9” value [2, 5] was “moderate (moderate, if IC50 20–100 μg/mL or 10–50 μM)”, the “inhibitory effect on the activity of CYP2D6” value ([3]; HLMs, CK 10–100 μM) was “minimal; also recorded: negligible” and the IC50 ([3]; HLMs, metoprolol 7.5 μM, CK 10–100 μM) was > 100 µM. For the same compound, the “inhibitor potency class for CYP2D6” value [3, 5] was “weak (weak, if IC50≥100 μg/mL or ≥50 μM)”.

— paper PMC4742234, “Screening of Drug Metabolizing Enzymes for the Ginsenoside Compound K In Vitro: An Efficient Anti-Cancer Substance Originating from Panax Ginseng” (PLoS ONE, 2016)
